The text below walks through data of US12521395B2, “Gem-disubstituted heterocyclic compounds and their use as IDH inhibitors” (NERVIANO MEDICAL SCIENCES S.R.L., priority 2019, dated 2026).

In general, IC50 refers to the concentration that inhibits the measured activity by half.

Assay [1] has as its target T1, IDH2^R172K (Homo sapiens, UniProt P48735, R172K).
T1 sequence (P48735 40-452 R172K): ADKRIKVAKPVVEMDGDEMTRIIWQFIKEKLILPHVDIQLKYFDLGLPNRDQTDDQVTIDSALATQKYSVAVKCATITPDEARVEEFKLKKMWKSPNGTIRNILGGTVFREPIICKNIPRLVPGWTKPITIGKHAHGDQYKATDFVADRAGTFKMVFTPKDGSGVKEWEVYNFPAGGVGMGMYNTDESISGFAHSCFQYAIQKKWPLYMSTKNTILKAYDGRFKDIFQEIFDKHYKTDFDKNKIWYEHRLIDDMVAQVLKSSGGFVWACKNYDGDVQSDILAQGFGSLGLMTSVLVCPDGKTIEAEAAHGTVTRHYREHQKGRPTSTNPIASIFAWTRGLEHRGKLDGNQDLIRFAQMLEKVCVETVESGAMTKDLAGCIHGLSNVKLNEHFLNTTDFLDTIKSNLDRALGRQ
Kind of assay: NADPH depletion assay (diaphorase/resazurin), IDH2 R172K. It is filed as biochemical. Particulars: IDH2^R172K 16 nM, alpha-ketoglutarate 0.55 mM. As for the experimental part: (§1) IDH mutated enzyme activity converting alpha-ketoglutarate to 2-hydroxyglutaric acid is measured using a NADPH depletion assay. In the assay the remaining cofactor is measured at the end of the reaction with the addition of a catalytic excess of diaphorase and resazurin, to generate a fluorescent signal in proportion to the amount of NADPH remaining. IDH1 WT enzyme as well as mutated isoforms IDH1^R132H, IDH1^R132C, and IDH2^R172K enzymes are commercially available proteins (see e.g. Sino Biological, Abcam, Active Motif or Creative BioMart).
(§2) IDH1^R132H homodimer enzyme are diluted to 8 nM, in 10 μL of Assay Buffer (150 mM NaCl, 50 mM Tris-HCl pH 7.6, 10 mM MgCl2, 0.001% Triton X-100, 4 mM β-mercaptoethanol); 0.2 μL of test compound, previously serially diluted 1 to 3, >10 experimental points from 1 mM in DMSO, is added and the mixture is incubated for 15 minutes at room temperature. The reaction is started with the addition of 10 μL of Substrate Mix (12 μM NADPH, 3.4 mM alpha-ketoglutarate in Assay Buffer) and the mixture is incubated for 60 minutes at room temperature. The reaction is terminated with the addition of 5 μl of Detection Buffer (100 μg/mL diaphorase, 30 μM resazurin, in IX Assay Buffer), and is incubated for 15 minutes before reading on a ViewLux as platereader at Ex544/Em590.
Compounds are assayed for their activity against IDH2^R172K following the same assay as above with the following modifications: IDH2^R172K and alpha-ketoglutarate final concentrations in the Assay Buffer is 16 nM and 0.55 mM, respectively.
For orientation: Alamar Blue is a resazurin reagent that responds to reducing activity.

For assay [2], the target named is IDH1 wild type enzyme (Homo sapiens, UniProt O75874). Briefly: Enzymatic assay for IDH1 wild-type (NADPH forming assay). The following applies: 0.016 nM IDH1WT, 15 min preincubation. It is filed as biochemical. As for the experimental part: IDH1WT enzymatic activity converting isocitric acid to alpha-ketoglutarate is measured using a NADPH forming assay. In the assay the forming cofactor is measured in continuous with the addition of a catalytic excess of diaphorase and resazurin, to generate a fluorescent signal in proportion to the amount of NADPH forming.
IDH1 wild type enzyme, sequence (O75874 whole entry): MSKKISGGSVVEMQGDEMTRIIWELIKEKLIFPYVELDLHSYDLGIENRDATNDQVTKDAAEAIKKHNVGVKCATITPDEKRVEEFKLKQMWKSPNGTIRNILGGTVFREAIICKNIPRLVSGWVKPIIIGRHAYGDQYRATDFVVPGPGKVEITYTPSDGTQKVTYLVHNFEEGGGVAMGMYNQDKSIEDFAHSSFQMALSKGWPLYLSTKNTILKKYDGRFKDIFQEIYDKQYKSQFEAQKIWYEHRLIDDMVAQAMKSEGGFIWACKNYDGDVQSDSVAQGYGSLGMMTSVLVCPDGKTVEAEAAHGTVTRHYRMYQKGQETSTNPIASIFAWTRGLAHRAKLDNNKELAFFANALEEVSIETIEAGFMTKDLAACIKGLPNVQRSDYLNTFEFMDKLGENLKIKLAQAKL
Compounds were preincubated with the enzyme, then the reaction was started by the addition of NADP+, isocitrate, diaphorase and a corresponding substrate, resazurin. Diaphorase reduces resazurin to the highly fluorescent resorufin with the concomitant oxidation of NADPH to NADP. Specifically, 0.2 μL of test compound, previously serially diluted 1 to 3, >10 experimental points from 1 mM in DMSO, was added to 0.016 nM IDH1WT enzyme in 10 μL of Assay Buffer (150 mM NaCl, 50 mM Tris-HCl pH 7.6, 10 mM MgCl2, 0.001% Triton X-100, 4 mM β-mercaptoethanol); the mixture is incubated for 15 minutes at room temperature. The reaction is started with the addition of 10 μL of Substrate Mix (400 μM NADP^+, 40 μM iso-citrate, 5 ugr/mL Diaphorase and 7 μM resazurin in Assay Buffer), the mixture is incubated at room temperature and the reaction is reading on a ViewLux as platereader at Ex544/Em590 in continuous.

Assay [3] deals with cell lines HT-1080 (IDH1^R132C). Kind of assay: Cellular assay: inhibition of 2HG production, LC-MS/MS. It is filed as cell-based. The following applies: Homo sapiens, 72 hr incubation, 2-HG in cell culture media, read-out: HT1080 2-HG IC50. The procedure:
Cell lines HT-1080 (commercially available) are maintained in E-MEM 10% FCS and incubated at 37° C. in a humidified 5% CO2 atmosphere.
Cells are seeded into 96 well black flat bottom plates at a density of 500 cells/well in 100 μL complete medium. After 24 hr the medium is replaced with 200 μL of fresh medium and compounds (dissolved into DMSO) are administrated to the cells using D300E Digital Dispenser (Tecan).
After 72 hr of incubation 100 μL from each well are collected and used for 2HG (R(−)-2-hydroxyglutarate) quantification. Levels of 2-HG in cell culture media are determined by LC-MS/MS. Cell supernatants (100 μL/well) are treated with 1 M aqueous trichloroacetic acid containing 130 μM of the internal standard 2-HG-d3 (20 μL/well) in a 96-well plate. The plates are sealed, mildly vortexed for 60 minutes, centrifuged at 4,000 RPM for 15 minutes, placed in a refrigerated autosampler taking care not to shake them, and aliquots of the upper part of the samples are directly injected in the chromatographic system. Calibration standards are obtained by ten folds dilution of aqueous 2-HG stock solutions with blank cell culture medium and denatured exactly in the same way as described above for samples. Samples and standards are assayed for 2-HG by reversed phase chromatography on a C18 column eluted with aqueous 0.15% formic acid and briefly washed with 90% methanol at the end of the run. 2-HG is determined by negative ion electrospray ionization with the internal standard method on a triple quadrupole mass spectrometer monitoring the MRM transitions 147>129 (2-HG) and 150>132 (2-HG-d3).
2-HG inhibition was calculated by comparing treated versus control data using Assay Explore (Symyx) software, with IC50 determined using a sigmoidal fitting algorithm.

Assay [4] has as its target IDH1^R132H (Homo sapiens, UniProt O75874, R132H). Kind of assay: NADPH depletion assay (diaphorase/resazurin), IDH1 R132H. The format is biochemical. Particulars: 15 min preincubation, 60 min reaction, room temperature. The procedure:
as §1, §2

The target in assay [5] is IDH1^R132C (Homo sapiens, UniProt O75874, R132C). Kind of assay: NADPH depletion assay (diaphorase/resazurin), IDH1 R132C. The format is biochemical. The following applies: IDH1^R132C 2 nM, alpha-ketoglutarate 0.14 mM; read-out: IDH1^R132C IC50.
IDH1^R132C, sequence (O75874 whole entry R132C): as the sequence (O75874 whole entry) above, with R132C counted along it

IDH1^R132H, sequence (O75874 whole entry R132H): as the sequence (O75874 whole entry) above, with R132H counted along it

Take `C=CC(=O)N1CCN(C2(c3ccc([C@H](C)Nc4cc5c(ccc(=O)n5C(C)C)cn4)cc3)CCC(F)(F)CC2)CC1` [cpd 47, 7-{[(1S)-1-{4-[1-(4-acryloylpiperazin-1-yl)-4,4-difluorocyclohexyl]phenyl}ethyl]amino}-1-(propan-2-yl)-1,6-naphthyridin-2(1H)-one]: the IC50 stood at 0.097 µM in assay [1]; 0.0974 µM in assay [2]; 0.0006 µM in assay [3]; 0.002 µM in assay [4]; 0.001 µM in assay [5].

With `C=CC(=O)N1CCN(C2(c3ccc(C(C)(C)Nc4ncc5ccc(=O)n(C(C)C)c5n4)cc3)CCC(F)(F)CC2)CC1` [cpd 52, 2-[(2-{4-[1-(4-acryloylpiperazin-1-yl)-4,4-difluorocyclohexyl]phenyl}propan-2-yl)amino]-8-(propan-2-yl)pyrido[2,3-d]pyrimidin-7(8H)-one], the IC50 in assay [1] is 0.322 µM; in assay [2], 0.321 µM; in assay [3] it was 0.004 µM; in assay [4], 0.014 µM; in assay [5] it was 0.009 µM.

With `C=CC(=O)N1CC(N(C)C2(c3ccc([C@H](C)Nc4ncc5ccc(=O)n(C(C)C)c5n4)cc3)CCC(F)(F)CC2)C1` [cpd 50, 2-{[(1S)-1-(4-{1-[(1-acryloylazetidin-3-yl)(methyl)amino]-4,4-difluorocyclohexyl}phenyl)ethyl]amino}-8-(propan-2-yl) pyrido[2,3-d]pyrimidin-7(8H)-one], the IC50 in assay [1] was determined as 0.516 µM; in assay [2], 0.516 µM; in assay [3], 0.01 µM; in assay [4] it was 0.02 µM; in assay [5] it was 0.005 µM.
